Assay results: the supplement of paper PMC8149375

Tests used:
Settings in all cases: treatment: drug + dasatinib (fixed dose, not stated); 5 days
769-P [1] = test: GI50 of drug in presence of dasatinib; higher = less potent
Experimental: (§1)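 Primary HTS combination arm: 8 RCC cell lines treated with 8 doses (up to 10 uM) of each library drug plus a fixed dose of dasatinib (dose not stated) for 5 days; viability read by CellTiter-Glo and normalised to DMSO. GI50 was fitted with XLfit, AUC is the area under the dose-response curve, and minimum viability is the lowest fraction of DMSO viability across doses.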

786-O [2] = test: as above
Experimental: as §1

A498 [3] = test: as above
Experimental: as §1

ACHN [4] = test: as above
Experimental: as §1

CAKI-1 [5] = test: as above
Experimental: as §1

SN12C [6] = test: as above
Experimental: as §1

TK-10 [7] = test: as above
Experimental: as §1

UO-31 [8] = test: as above
Experimental: as §1

769-P [9] = test: minimum viability across doses, drug + dasatinib, relative to DMSO (fraction); higher = less growth inhibition
Experimental: as §1

786-O [10] = test: as above
Experimental: as §1

A498 [11] = test: as above
Experimental: as §1

ACHN [12] = test: as above
Experimental: as §1

CAKI-1 [13] = test: as above
Experimental: as §1

SN12C [14] = test: as above
Experimental: as §1

TK-10 [15] = test: as above
Experimental: as §1

UO-31 [16] = test: as above
Experimental: as §1

769-P [17] = test: AUC of dose-response viability curve, drug + dasatinib, normalised to DMSO (arbitrary (AUC of normalised viability)); higher = less growth inhibition
Experimental: as §1

786-O [18] = test: as above
Experimental: as §1

A498 [19] = test: as above
Experimental: as §1

ACHN [20] = test: as above
Experimental: as §1

CAKI-1 [21] = test: as above
Experimental: as §1

SN12C [22] = test: as above
Experimental: as §1

TK-10 [23] = test: as above
Experimental: as §1

UO-31 [24] = test: as above
Experimental: as §1

SMILES | GI50 of drug (786-O [2]) [nM] | GI50 of drug (ACHN [4]) [nM] | GI50 of drug (769-P [1]) [nM] | GI50 of drug (A498 [3]) [nM] | GI50 of drug (CAKI-1 [5]) [nM] | GI50 of drug (SN12C [6]) [nM] | GI50 of drug (TK-10 [7]) [nM] | GI50 of drug (UO-31 [8]) [nM] | minimum viability across doses (769-P [9]) | minimum viability across doses (786-O [10]) | minimum viability across doses (A498 [11]) | minimum viability across doses (ACHN [12]) | minimum viability across doses (CAKI-1 [13]) | minimum viability across doses (SN12C [14]) | minimum viability across doses (TK-10 [15]) | minimum viability across doses (UO-31 [16]) | AUC of dose-response viability curve (769-P [17]) | AUC of dose-response viability curve (786-O [18]) | AUC of dose-response viability curve (A498 [19]) | AUC of dose-response viability curve (ACHN [20]) | AUC of dose-response viability curve (CAKI-1 [21]) | AUC of dose-response viability curve (SN12C [22]) | AUC of dose-response viability curve (TK-10 [23]) | AUC of dose-response viability curve (UO-31 [24])
COc1cc2ncnc(Nc3ccc(F)c(Cl)c3)c2cc1NC(=O)/C=C/CN1CCCCC1 + Cc1nc(Nc2ncc(C(=O)Nc3c(C)cccc3Cl)s2)cc(N2CCN(CCO)CC2)n1 [dasatinib] | < 3 | < 3 | 25.5 | 2350 | 485 | 567 | 53.6 | 1160 | 0.00783 | 0.0063 | 0.0146 | 0.00207 | 0.00568 | 0.00664 | 0.00803 | 0.0145 | 1.25 | 1.02 | 2.74 | 0.908 | 1.63 | 1.81 | 1.46 | 2.31
CC(C)(C)c1nc(-c2cccc(NS(=O)(=O)c3c(F)cccc3F)c2F)c(-c2ccnc(N)n2)s1 + Cc1nc(Nc2ncc(C(=O)Nc3c(C)cccc3Cl)s2)cc(N2CCN(CCO)CC2)n1 [dasatinib] | 30.8 | 134 | > 10000 | > 10000 | 121 | > 10000 | 563 | > 10000 | 0.55 | 0.184 | 1.01 | 0.113 | 0.0739 | 0.684 | 0.3 | 0.58 | 2.36 | 1.49 | 4.08 | 1.51 | 1.48 | 2.61 | 2 | 3.99
CCn1c(-c2nonc2N)nc2c(C#CC(C)(C)O)ncc(OC[C@H]3CCCNC3)c21 + Cc1nc(Nc2ncc(C(=O)Nc3c(C)cccc3Cl)s2)cc(N2CCN(CCO)CC2)n1 [dasatinib] | 213 | 456 | > 10000 | > 10000 | 2670 | > 10000 | 1930 | > 10000 | 0.627 | 0.189 | 0.802 | 0.274 | 0.305 | 0.66 | 0.421 | 0.642 | 2.43 | 1.74 | 3.07 | 1.8 | 2.29 | 2.45 | 2.22 | 2.8
CCc1cc(Nc2nccc(-c3c(-c4ccc(OC)c(C(=O)Nc5c(F)cccc5F)c4)nc4ccccn34)n2)c(OC)cc1N1CCC(N2CCN(S(C)(=O)=O)CC2)CC1 + Cc1nc(Nc2ncc(C(=O)Nc3c(C)cccc3Cl)s2)cc(N2CCN(CCO)CC2)n1 [dasatinib] | > 10000 | > 10000 | 3100 | > 10000 | 3060 | > 10000 | > 10000 | > 10000 | 0.445 | 0.641 | 0.849 | 0.488 | 0.406 | 0.644 | 0.678 | 0.86 | 2.19 | 2.71 | 3.42 | 1.97 | 2.19 | 2.4 | 2.59 | 3.28
Cn1cc(C2=C(c3cn(C4CCN(Cc5ccccn5)CC4)c4ccccc34)C(=O)NC2=O)c2ccccc21 + Cc1nc(Nc2ncc(C(=O)Nc3c(C)cccc3Cl)s2)cc(N2CCN(CCO)CC2)n1 [dasatinib] | > 10000 | > 10000 | > 10000 | > 10000 | > 10000 | > 10000 | > 10000 | 6320 | 0.571 | 0.636 | 0.817 | 0.566 | 0.585 | 0.62 | 0.667 | 0.341 | 2.27 | 2.71 | 3.04 | 2.28 | 2.2 | 2.38 | 2.85 | 3.35
CCc1cnn2c(NCc3ccc[n+]([O-])c3)cc(N3CCCC[C@H]3CCO)nc12 + Cc1nc(Nc2ncc(C(=O)Nc3c(C)cccc3Cl)s2)cc(N2CCN(CCO)CC2)n1 [dasatinib] | 3.6 | 3.94 | 16.7 | 11.9 | 7.08 | 11.5 | 14.1 | 15.1 | 0.0174 | 0.00583 | 0.00891 | 0.00901 | 0.0412 | 0.0087 | 0.169 | 0.0088 | 0.787 | 0.357 | 0.592 | 0.506 | 0.562 | 0.562 | 1.11 | 0.771
Cc1nc(Nc2ncc(C(=O)Nc3c(C)cccc3Cl)s2)cc(N2CCN(CCO)CC2)n1 + Cc1nc(Nc2ncc(C(=O)Nc3c(C)cccc3Cl)s2)cc(N2CCN(CCO)CC2)n1 [dasatinib] | 158 | 26.3 | 38.2 | 8460 | 23.6 | 2300 | 18.8 | 65.6 | 0.0465 | 0.0726 | 0.413 | 0.0702 | 0.0256 | 0.422 | 0.0619 | 0.0492 | 1.22 | 1.71 | 2.62 | 1.18 | 1.03 | 2.21 | 1.04 | 1.44

Now from value to compound, other results behind:

GI50 of drug (786-O [2]) [nM] | GI50 of drug (ACHN [4]) [nM] | SMILES | GI50 of drug (769-P [1]) [nM] | GI50 of drug (A498 [3]) [nM] | GI50 of drug (CAKI-1 [5]) [nM] | GI50 of drug (SN12C [6]) [nM] | GI50 of drug (TK-10 [7]) [nM] | GI50 of drug (UO-31 [8]) [nM] | minimum viability across doses (769-P [9]) | minimum viability across doses (786-O [10]) | minimum viability across doses (A498 [11]) | minimum viability across doses (ACHN [12]) | minimum viability across doses (CAKI-1 [13]) | minimum viability across doses (SN12C [14]) | minimum viability across doses (TK-10 [15]) | minimum viability across doses (UO-31 [16]) | AUC of dose-response viability curve (769-P [17]) | AUC of dose-response viability curve (786-O [18]) | AUC of dose-response viability curve (A498 [19]) | AUC of dose-response viability curve (ACHN [20]) | AUC of dose-response viability curve (CAKI-1 [21]) | AUC of dose-response viability curve (SN12C [22]) | AUC of dose-response viability curve (TK-10 [23]) | AUC of dose-response viability curve (UO-31 [24])
> 10000 | 9070 | CNC(=O)c1ccc(-c2cnc3ncc(Cc4ccc5ncccc5c4)n3n2)cc1F + Cc1nc(Nc2ncc(C(=O)Nc3c(C)cccc3Cl)s2)cc(N2CCN(CCO)CC2)n1 [dasatinib] | 7570 | > 10000 | > 10000 | > 10000 | > 10000 | > 10000 | 0.457 | 0.576 | 0.918 | 0.497 | 0.571 | 0.659 | 0.656 | 0.991 | 2.42 | 2.19 | 3.63 | 2.05 | 2.26 | 2.42 | 2.44 | 4.11
496 | 112 | COc1cc2c(Oc3ccc(NC(=O)C4(C(=O)Nc5ccc(F)cc5)CC4)cc3F)ccnc2cc1OCCCN1CCOCC1 + Cc1nc(Nc2ncc(C(=O)Nc3c(C)cccc3Cl)s2)cc(N2CCN(CCO)CC2)n1 [dasatinib] | 458 | 1430 | 135 | 226 | 558 | 393 | 0.00976 | 0.00858 | 0.0345 | 0.00242 | 0.00437 | 0.0105 | 0.00508 | 0.011 | 1.78 | 1.65 | 2.47 | 1.36 | 1.48 | 1.56 | 1.94 | 1.95
136 | 101 | O=C1NC(=O)/C(=C/c2ccc3nccc(-c4ccncc4)c3c2)S1 + Cc1nc(Nc2ncc(C(=O)Nc3c(C)cccc3Cl)s2)cc(N2CCN(CCO)CC2)n1 [dasatinib] | 294 | 383 | 75 | 304 | 930 | 500 | 0.261 | 0.00524 | 0.138 | 0.108 | 0.0502 | 0.243 | 0.318 | 0.0612 | 1.8 | 1.53 | 2.01 | 1.45 | 1.29 | 1.76 | 2.17 | 2.17
4.97 | 8.21 | COc1ncc(-c2ccc3nccc(-c4ccnnc4)c3c2)cc1NS(=O)(=O)c1ccc(F)cc1F + Cc1nc(Nc2ncc(C(=O)Nc3c(C)cccc3Cl)s2)cc(N2CCN(CCO)CC2)n1 [dasatinib] | 18.4 | 168 | 7.86 | 19 | 16.5 | 28.1 | 0.0228 | 0.00295 | 0.158 | 0.0717 | 0.00939 | 0.104 | 0.0271 | 0.00632 | 0.957 | 0.564 | 1.82 | 0.822 | 0.66 | 1.1 | 0.955 | 0.993
> 10000 | 3.94 | C#Cc1cccc(Nc2ncnc3cc(OCCOC)c(OCCO)cc23)c1 + Cc1nc(Nc2ncc(C(=O)Nc3c(C)cccc3Cl)s2)cc(N2CCN(CCO)CC2)n1 [dasatinib] | 760 | > 10000 | 1010 | > 10000 | 1300 | 9830 | 0.301 | 0.489 | 0.973 | 0.108 | 0.125 | 0.415 | 0.323 | 0.439 | 2.11 | 2.72 | 3.63 | 1.13 | 2.09 | 2.43 | 2.1 | 4.6
28.4 | 73.7 | CCn1cc(-c2ccnc3[nH]c(-c4cccc(CN(C)C)c4)cc23)c(-c2ccc(NC(=O)N(C)C)cc2)n1 + Cc1nc(Nc2ncc(C(=O)Nc3c(C)cccc3Cl)s2)cc(N2CCN(CCO)CC2)n1 [dasatinib] | 785 | 2170 | 96.9 | 128 | 635 | 2870 | 0.0742 | 0.0106 | 0.131 | 0.00393 | 0.0134 | 0.00824 | 0.0524 | 0.0175 | 2.05 | 1.39 | 2.97 | 1.33 | 1.42 | 1.61 | 2.03 | 3.82
686 | 434 | CNC(=O)c1c(F)cccc1Nc1nc(Nc2cc3c(cc2OC)CCN3C(=O)CN(C)C)nc2[nH]ccc12 + Cc1nc(Nc2ncc(C(=O)Nc3c(C)cccc3Cl)s2)cc(N2CCN(CCO)CC2)n1 [dasatinib] | 1300 | 8320 | 919 | 1520 | 1660 | 2920 | 0.0146 | 0.00553 | 0.015 | 0.0022 | 0.00312 | 0.004 | 0.189 | 0.0173 | 1.96 | 1.84 | 3.85 | 1.62 | 1.87 | 2.11 | 2.17 | 3.45
